According to PMC4961458 (eLife, 2016):

Columns and labels:
GR = target: T1, GR (Homo sapiens, UniProt P04150); assay: GR transcriptional reporter assay, antagonist mode (CV1 cells); assay type: cell-based
T1 sequence (P04150 1-777): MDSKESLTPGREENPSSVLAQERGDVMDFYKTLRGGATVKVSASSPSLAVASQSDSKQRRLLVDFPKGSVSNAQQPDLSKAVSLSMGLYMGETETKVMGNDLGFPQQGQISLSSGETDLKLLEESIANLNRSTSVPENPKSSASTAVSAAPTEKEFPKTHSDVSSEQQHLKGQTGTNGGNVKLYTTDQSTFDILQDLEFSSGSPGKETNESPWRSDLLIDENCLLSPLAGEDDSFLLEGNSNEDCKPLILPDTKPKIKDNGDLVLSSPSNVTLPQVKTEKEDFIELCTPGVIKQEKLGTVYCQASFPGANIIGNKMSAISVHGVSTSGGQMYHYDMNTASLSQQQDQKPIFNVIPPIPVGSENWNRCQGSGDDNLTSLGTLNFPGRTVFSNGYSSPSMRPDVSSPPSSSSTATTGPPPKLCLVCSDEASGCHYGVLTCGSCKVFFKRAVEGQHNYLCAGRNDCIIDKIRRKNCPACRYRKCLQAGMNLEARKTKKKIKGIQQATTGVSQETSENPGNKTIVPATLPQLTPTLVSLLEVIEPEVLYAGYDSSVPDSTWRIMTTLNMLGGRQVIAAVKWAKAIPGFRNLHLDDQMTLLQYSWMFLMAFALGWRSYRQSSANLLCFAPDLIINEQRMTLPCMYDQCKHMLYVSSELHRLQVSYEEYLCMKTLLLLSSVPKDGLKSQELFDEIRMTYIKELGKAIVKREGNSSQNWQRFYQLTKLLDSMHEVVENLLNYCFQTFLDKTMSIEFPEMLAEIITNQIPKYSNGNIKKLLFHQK
Procedure: CV1 cells were maintained in MEM supplemented with 10% FBS. Transcriptional assays were performed by seeding 12 mL of cells at a density of 250,000 cells/mL into a T-75 cell culture flask in MEM supplemented with 5% charcoal-stripped serum and allowed to attach overnight. Cells were transiently transfected using FuGENE 6 (Roche Applied Science). […] Transfected cells were incubated overnight then split into four 96-well tissue culture plates and incubated for 4 hr followed by compound addition. […] The final agonist concentration used in the antagonist assays was 10 nM.

PR-A = target: T2, PR-A (Homo sapiens, UniProt P06401); assay: PR-A transcriptional reporter assay, agonist mode (HEPG2 cells); assay type: cell-based; parameters: subcloning full-length PRa into pCMX; expressed in transfected cells; host or cells: HEPG2; conditions: % of maximal R5020-stimulated activity
T2 sequence (P06401 1-769 isoform P06401-2): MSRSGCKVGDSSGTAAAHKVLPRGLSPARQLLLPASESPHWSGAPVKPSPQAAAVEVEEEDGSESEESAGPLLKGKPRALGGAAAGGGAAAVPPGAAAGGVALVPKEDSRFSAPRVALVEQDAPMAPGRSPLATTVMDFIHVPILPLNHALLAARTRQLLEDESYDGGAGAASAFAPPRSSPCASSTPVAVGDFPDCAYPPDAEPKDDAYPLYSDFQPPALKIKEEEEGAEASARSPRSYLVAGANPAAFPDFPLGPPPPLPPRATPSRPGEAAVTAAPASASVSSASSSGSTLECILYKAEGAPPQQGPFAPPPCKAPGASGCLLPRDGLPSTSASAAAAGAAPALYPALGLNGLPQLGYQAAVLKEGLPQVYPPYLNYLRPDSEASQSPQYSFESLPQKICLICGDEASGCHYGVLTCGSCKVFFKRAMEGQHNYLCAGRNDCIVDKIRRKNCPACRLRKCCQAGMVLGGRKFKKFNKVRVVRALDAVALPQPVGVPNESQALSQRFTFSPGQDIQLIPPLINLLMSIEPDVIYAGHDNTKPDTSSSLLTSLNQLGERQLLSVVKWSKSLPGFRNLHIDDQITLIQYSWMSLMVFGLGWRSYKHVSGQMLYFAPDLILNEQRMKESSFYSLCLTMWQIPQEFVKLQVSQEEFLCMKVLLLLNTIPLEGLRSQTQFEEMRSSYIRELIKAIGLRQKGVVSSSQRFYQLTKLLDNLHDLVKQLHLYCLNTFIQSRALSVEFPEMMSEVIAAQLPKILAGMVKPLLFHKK
Procedure: Transcriptional assays were performed by seeding 100 μL of cells at a density of 250,000 cells/mL into 96-well cell culture plates in RPMI 1640 supplemented with 5% charcoal-stripped serum and allowed to attach overnight. […] Triplicate transfections were performed using 418 ng reporter vector (2X PRE-Luciferase for PR-A and PR-B, MMTV-Luciferase for MR), 50 ng CMVpRL (normalization vector), 10 ng NHR expression vector (CMX-PR-A, pCDNA-PR-B or 6R-MR), and 0.7 μL lipofectin. […] The final agonist concentration used in the antagonist assays was 1 nM. Following 24 hr incubation, the medium was removed and the cells were lysed in 40 μL of lysis buffer (25 mM Tris Phosphate, 2 mM CDTA, 10% Glycerol, 0.5% Triton X-100, 2 mM DTT). Firefly luciferase activity was measured immediately following the addition of 40 μL luciferase buffer (20 mM tricine, 0.1 mM EDTA, 1.07 mM (MgCO3)4 Mg(OH)2· 5H2O, 2.67 mM MgSO4, 33.3 mM DTT, 270 μM Coenzyme A, 470 μM luciferin, 530 μM ATP).

ERα = ERα (Homo sapiens, UniProt P03372); assay: MCF7 ERα In-Cell Western assay; conditions: MCF7, 4 hr
[1] = GDC-0810 mouse pharmacokinetics

ERα, sequence (P03372 whole entry): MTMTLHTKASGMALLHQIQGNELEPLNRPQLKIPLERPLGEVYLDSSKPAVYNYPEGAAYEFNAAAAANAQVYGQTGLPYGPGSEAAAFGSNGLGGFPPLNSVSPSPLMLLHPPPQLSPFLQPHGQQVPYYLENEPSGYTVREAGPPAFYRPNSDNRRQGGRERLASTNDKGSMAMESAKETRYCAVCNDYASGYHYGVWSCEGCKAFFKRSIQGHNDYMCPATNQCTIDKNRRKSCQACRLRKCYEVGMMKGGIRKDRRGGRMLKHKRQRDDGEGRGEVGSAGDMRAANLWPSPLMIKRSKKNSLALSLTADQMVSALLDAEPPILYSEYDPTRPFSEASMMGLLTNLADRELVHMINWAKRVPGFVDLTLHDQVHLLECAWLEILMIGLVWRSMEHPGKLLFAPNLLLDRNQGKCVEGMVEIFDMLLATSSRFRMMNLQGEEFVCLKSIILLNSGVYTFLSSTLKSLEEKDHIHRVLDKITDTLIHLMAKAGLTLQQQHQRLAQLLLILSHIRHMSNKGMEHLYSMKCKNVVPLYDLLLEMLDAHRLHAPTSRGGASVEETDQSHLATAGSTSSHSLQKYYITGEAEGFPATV

Structure (SMILES): CC/C(=C(\c1ccc(O)cc1)c1ccc(OCCN(C)C)cc1)c1ccccc1 [4-OH Tam, 4-hydroxytamoxifen]
- IC50 (GR): 1.47 ± 1.18 µM
- Emax (PR-A): 0.04 ± 0.06%

Structure (SMILES): C[C@]12CC[C@@H]3c4ccc(O)cc4C[C@@H](CCCCCCCCC[S+]([O-])CCCC(F)(F)C(F)(F)F)[C@H]3[C@@H]1CC[C@@H]2O (some centres unmarked) [Fulvestrant]
- ERα degradation In-Cell Western Emax (ERα): 6.4 ± 2.0 % Veh.

Structure (SMILES): CC/C(=C(/c1ccc(/C=C/C(=O)O)cc1)c1ccc2[nH]ncc2c1)c1ccc(F)cc1Cl [GDC-0810]
- Oral %F [1]: 61%
- Clast ([1]; oral gavage, 10 mg/kg/day): 7 ng/mL
- Clast ([1]; oral gavage, 30 mg/kg/day): 13 ng/mL
- AUC(0-t) ([1]; oral gavage, 100 mg/kg/day): 94100 ng·h/mL
- half-life ([1]; plasma): 2.6 h
- Vd ([1]; plasma, intravenous): 1.2 L/kg
- clearance ([1]; plasma, intravenous): 11 mL/min/kg
- AUC(0-inf) ([1]; plasma, po): 8800 ng·h/mL
- Cmax ([1]; plasma, po): 4400 ng/mL
- AUC(0-t) ([1]; plasma, po, 10 mg/kg/day): 5500 ng·h/mL
- Cmax ([1]; plasma, po, 10 mg/kg/day): 1640 ng/mL
- Tmax ([1]; plasma, po, 10 mg/kg/day): 1 h
- half-life ([1]; plasma, po, 10 mg/kg/day): 8 h
- AUC(0-t) ([1]; plasma, po, 30 mg/kg/day): 21500 ng·h/mL
- Cmax ([1]; plasma, po, 30 mg/kg/day): 5330 ng/mL
- Tmax ([1]; plasma, po, 30 mg/kg/day): 1 h
- half-life ([1]; plasma, po, 30 mg/kg/day): 4 h
- AUC(0-t) ([1]; plasma, po, 100 mg/kg/day): 94100 ng·h/mL
- Cmax ([1]; plasma, po, 100 mg/kg/day): 9310 ng/mL
- Tmax ([1]; plasma, po, 100 mg/kg/day): 8 h
- concentration at 24 h ([1]; plasma, po, 100 mg/kg/day): 216 ng/mL
- half-life ([1]; plasma, po, 100 mg/kg/day): 3 h
- Emax (PR-A): 6.68 ± 7.97%
